Consider 1 compound from patent publication US6552079B2, “Integrin antagonists” (Eli Lilly and Company, priority 1996, dated 2003).

Assay [1] deals with ADP-induced aggregation of human platelets (PRP). Description: Platelet aggregation assay (Aggregation-Human/PRP/ADP). It counts as cell-based. Conditions: human platelet rich plasma, ADP 20 μM. Here is the method:
In addition to the ELISA integrin binding assays described above, the Aggregation-Human/PRP/ADP Assay is useful for evaluating therapeutic compounds.
Platelet rich plasma (PRP) is prepared from healthy human volunteers for use in determining inhibition of platelet aggregation by compounds. Blood was collected via a 21 gauge butterfly cannula, using a two-syringe technique into 1/10 volume of […] trisodium citrate.
Platelet rich plasma was prepared at room temperature by centrifugation of the citrated whole blood at 100×g for 15 minutes. The PRP contained approximately 200-400,000 platelets/μl. Platelet poor plasma was prepared by centrifugation of citrated whole blood at 12,000×g for 2 minutes.
Platelet aggregation was assayed in a Chrono-log whole blood aggregometer (Chrono-log Corporation, Havertown, Pa.) using the PRP prepared above according to the manufacturers directions. Inhibition of platelet aggregation was studied by adding varying amounts of test materials followed by adenosine diphosphate (ADP, 20 μM) to stirred human PRP. Specifically, the human PRP was incubated with the compound for 1-2 min. at 37° C. prior to addition of the aggregating agent ADP.

The next assay addresses T1, GPIIb-IIIa (Homo sapiens, UniProt P05106+P08514).
T1 construct: Purified platelet GPIIb-IIIa was prepared by Fitzgerald, L. A., et al; from tissue; host or cells: platelets
As to the kind of experiment: GPIIb-IIIa ELISA purified integrin binding assay (fibrinogen binding). Conditions: inhibition of biotinylated fibrinogen binding to immobilized purified platelet GPIIb-IIIa; read-out: GPIIbIIIa ELISA (IC50 μM). Here is the method: (§1) In the following assays, GPIIb-IIIa and vitronectin receptor, αvβ3 were prepared in purified form, by methods described in Fitzgerald, L. A., et al., Anal Biochem (1985) 151: 169-177 and Smith, J. W., J. Biol Chem (1988) 263: 18726-18731 (the disclosure of which is incorporated herein by reference). GPIIb-IIIa or vitronectin receptor, αvβ3, are coated onto microtiter plates. The coated support is then contacted with fibrinogen for the GPIIb-IIIa assay, or is contacted with vitronectin for the vitronectin receptor, αvβ3 and with test materials and incubated for sufficient time to reach maximal ligand binding to immobilized integrins. The adhesive ligands fibrinogen or vitronectin were typically provided at a concentration of 2-50 nM and the test material can, if desired, be added at a series of diultions. […]
(§2) The corresponding ligands (fibrinogen, von Willebrand Factor, or vitronectin) were conjugated to biotin using commercially available reagents and standard protocols. […] After incubation, the wells were aspirated to dryness and bound ligand containing biotin label was quantitated.
(§3) The bound protein was detected by the addition of anti-biotin antibody conjugated to alkaline phosphatase followed by addition of substrate (p-nitrophenyl […] phosphate), and determination of the optical density of each well at […].

For assay [2], the target named is T2, vitronectin receptor, αvβ3 (Homo sapiens, UniProt P05106+P06756).
T2 construct: After purification, the receptors were each stored in 0.1% Triton X-100 at 0.1-1.0 mg/ml; from tissue
As to the kind of experiment: αvβ3 ELISA purified integrin binding assay (vitronectin binding). Conditions: inhibition of biotinylated vitronectin binding to immobilized purified αvβ3. How it is done: as §1, §2, §3

Molecules are shown by their SMILES.

T1 sequence (P08514 32-887 limits assumed): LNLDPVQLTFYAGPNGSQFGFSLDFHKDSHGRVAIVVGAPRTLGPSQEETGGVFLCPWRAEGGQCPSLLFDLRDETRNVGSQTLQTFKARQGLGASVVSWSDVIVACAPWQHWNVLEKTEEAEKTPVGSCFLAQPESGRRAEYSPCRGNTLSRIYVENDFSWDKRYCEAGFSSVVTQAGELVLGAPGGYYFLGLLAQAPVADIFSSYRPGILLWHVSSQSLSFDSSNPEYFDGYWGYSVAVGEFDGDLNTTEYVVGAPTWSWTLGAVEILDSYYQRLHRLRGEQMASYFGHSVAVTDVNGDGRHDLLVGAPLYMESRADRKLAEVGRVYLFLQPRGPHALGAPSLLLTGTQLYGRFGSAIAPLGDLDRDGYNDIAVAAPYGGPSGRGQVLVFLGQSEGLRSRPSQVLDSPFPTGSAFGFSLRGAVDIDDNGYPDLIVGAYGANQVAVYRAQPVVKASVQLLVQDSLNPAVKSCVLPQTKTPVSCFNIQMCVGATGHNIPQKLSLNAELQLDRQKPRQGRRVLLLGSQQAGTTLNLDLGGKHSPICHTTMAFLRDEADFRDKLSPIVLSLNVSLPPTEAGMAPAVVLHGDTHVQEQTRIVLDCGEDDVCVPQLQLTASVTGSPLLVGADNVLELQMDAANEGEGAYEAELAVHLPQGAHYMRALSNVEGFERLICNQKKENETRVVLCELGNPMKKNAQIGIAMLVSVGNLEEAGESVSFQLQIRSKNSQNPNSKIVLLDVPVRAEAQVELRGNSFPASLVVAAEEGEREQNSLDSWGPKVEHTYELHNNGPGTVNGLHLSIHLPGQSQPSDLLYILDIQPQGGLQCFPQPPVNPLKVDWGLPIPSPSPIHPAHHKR
T1 sequence (P08514 891-1039 partner limits assumed): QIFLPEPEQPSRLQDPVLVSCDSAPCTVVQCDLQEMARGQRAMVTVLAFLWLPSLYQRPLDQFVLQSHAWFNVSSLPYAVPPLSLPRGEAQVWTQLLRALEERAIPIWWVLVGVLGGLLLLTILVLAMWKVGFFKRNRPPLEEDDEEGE
T1 sequence (P05106 27-788): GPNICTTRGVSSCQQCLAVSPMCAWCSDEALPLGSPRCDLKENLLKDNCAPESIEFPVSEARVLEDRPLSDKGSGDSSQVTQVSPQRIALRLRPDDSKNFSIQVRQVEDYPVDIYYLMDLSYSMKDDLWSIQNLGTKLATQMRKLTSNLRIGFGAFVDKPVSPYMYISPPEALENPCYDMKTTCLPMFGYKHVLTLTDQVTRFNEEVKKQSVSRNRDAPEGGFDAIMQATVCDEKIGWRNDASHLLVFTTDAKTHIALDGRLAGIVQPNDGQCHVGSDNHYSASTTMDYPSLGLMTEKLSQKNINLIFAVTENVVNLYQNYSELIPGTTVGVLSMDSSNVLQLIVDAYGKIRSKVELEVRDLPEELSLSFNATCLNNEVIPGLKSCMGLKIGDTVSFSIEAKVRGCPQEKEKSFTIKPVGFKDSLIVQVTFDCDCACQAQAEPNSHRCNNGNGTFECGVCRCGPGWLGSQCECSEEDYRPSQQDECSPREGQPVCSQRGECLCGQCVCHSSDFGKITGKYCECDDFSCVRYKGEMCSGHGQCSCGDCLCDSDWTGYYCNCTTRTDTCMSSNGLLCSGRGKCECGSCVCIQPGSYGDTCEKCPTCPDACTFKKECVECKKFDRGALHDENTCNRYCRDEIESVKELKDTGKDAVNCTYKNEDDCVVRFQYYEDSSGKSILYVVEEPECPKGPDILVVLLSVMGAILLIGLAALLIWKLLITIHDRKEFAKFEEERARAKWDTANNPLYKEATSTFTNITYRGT
T2 sequence (P06756 31-889 limits assumed): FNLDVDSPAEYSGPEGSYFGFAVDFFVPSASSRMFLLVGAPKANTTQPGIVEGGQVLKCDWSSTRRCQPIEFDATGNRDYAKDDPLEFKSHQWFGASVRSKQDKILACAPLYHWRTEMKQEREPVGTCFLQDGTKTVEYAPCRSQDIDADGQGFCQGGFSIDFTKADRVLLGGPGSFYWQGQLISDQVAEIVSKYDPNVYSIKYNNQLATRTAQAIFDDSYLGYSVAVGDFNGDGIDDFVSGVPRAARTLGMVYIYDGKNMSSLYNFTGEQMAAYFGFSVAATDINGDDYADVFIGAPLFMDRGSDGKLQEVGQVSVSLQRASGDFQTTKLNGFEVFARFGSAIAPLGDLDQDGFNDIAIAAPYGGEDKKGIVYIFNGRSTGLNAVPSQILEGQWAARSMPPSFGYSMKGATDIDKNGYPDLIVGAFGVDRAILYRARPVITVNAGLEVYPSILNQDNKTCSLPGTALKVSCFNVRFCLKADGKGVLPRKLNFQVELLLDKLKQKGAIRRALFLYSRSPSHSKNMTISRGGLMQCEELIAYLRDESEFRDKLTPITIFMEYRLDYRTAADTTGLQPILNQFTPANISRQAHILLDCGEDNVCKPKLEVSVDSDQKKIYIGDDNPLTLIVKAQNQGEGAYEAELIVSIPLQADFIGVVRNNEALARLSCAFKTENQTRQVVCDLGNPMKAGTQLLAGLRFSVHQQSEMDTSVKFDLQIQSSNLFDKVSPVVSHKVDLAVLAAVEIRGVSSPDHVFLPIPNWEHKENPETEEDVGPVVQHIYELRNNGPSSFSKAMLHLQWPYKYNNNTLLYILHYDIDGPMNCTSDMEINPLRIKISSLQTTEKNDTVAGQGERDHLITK
T2 sequence (P06756 891-1048 partner limits assumed): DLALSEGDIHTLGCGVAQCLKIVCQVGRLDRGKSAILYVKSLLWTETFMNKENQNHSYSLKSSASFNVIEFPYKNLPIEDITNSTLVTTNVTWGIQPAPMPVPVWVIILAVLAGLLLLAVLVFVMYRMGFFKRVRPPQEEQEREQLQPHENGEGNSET
T2 sequence (P05106 27-788): as the sequence (P05106 27-788) above

Take `O=C(CNC(=O)C1CCNCC1)NCC(NS(=O)(=O)c1ccccc1)C(=O)O` (stereo not drawn) [Compound 16]: the IC50 in assay [1] was 49.3 µM; at GPIIb-IIIa it was 5 µM; in assay [2], more than 100 µM.
